Tests used:
[1] = tested on: MCF7; assay: Cytotoxicity against human MCF7 cells after 72 hrs by MTT assay; format: functional, cell-based; details: MCF7, 72 h
[2] = tested on: HEp-2; assay: Cytotoxicity against human Hep2 cells after 72 hrs by MTT assay; format: functional, cell-based; details: HEp-2, 72 h
[3] = Cytotoxicity against human LM7 cells after 72 hrs by MTT assay; format: functional, cell-based; details: LM7, 72 h
[4] = Ratio of 5-fluorouracil IC50 to compound IC50 for human LM7 cells; format: functional
[5] = tested on: HeLa; assay: Cytotoxicity against human HeLa cells after 72 hrs by MTT assay; format: functional, cell-based
[6] = tested on: MCF7; assay: Ratio of 5-fluorouracil IC50 to compound IC50 for human MCF7 cells; format: functional
[7] = tested on: HeLa; assay: Ratio of 5-fluorouracil IC50 to compound IC50 for human HeLa cells; format: functional
[8] = tested on: HEp-2; assay: Ratio of 5-fluorouracil IC50 to compound IC50 for human Hep2 cells; format: functional
[9] = Cytotoxicity against human MDA-MB-435S cells after 72 hrs by MTT assay; format: functional, cell-based
[10] = Ratio of 5-fluorouracil IC50 to compound IC50 for human MDA-MB-435S cells; format: functional
[11] = tested on: SW480; assay: Ratio of 5-fluorouracil IC50 to compound IC50 for human SW480 cells; format: functional
[12] = tested on: SW480; assay: Cytotoxicity against human SW480 cells after 72 hrs by MTT assay; format: functional, cell-based; details: SW480, 72 h
[13] = tested on: SW480; assay: Cell cycle arrest in human SW480 cells assessed as accumulation at G2/M phase at 1.2 uM after 48 hrs by propidium iodide staining-based flow cytometry (reference value: 13.99 +/- 0.35%); format: functional
[14] = tested on: SW480; assay: Cell cycle arrest in human SW480 cells assessed as accumulation at G2/M phase after 48 hrs by propidium iodide staining-based flow cytometry; format: functional
[15] = tested on: SW480; assay: Cell cycle arrest in human SW480 cells assessed as accumulation at G2/M phase at 1 uM after 48 hrs by propidium iodide staining-based flow cytometry (reference value: 13.99 +/- 0.35%); format: functional
[16] = tested on: SW480; assay: Cell cycle arrest in human SW480 cells assessed as accumulation at S phase at 1.2 uM after 48 hrs by propidium iodide staining-based flow cytometry (reference value: 14.01 +/- 0.86%); format: functional
[17] = tested on: SW480; assay: Cell cycle arrest in human SW480 cells assessed as accumulation at G0/G1 phase at 1 uM after 48 hrs by propidium iodide staining-based flow cytometry (reference value: 72.00 +/- 4.30%); format: functional
[18] = tested on: SW480; assay: Cell cycle arrest in human SW480 cells assessed as accumulation at G0/G1 phase at 1.2 uM after 48 hrs by propidium iodide staining-based flow cytometry (reference value: 72.00 +/- 4.30%); format: functional
[19] = tested on: SW480; assay: Cell cycle arrest in human SW480 cells assessed as accumulation at S phase at 0.8 uM after 48 hrs by propidium iodide staining-based flow cytometry (reference value: 14.01 +/- 0.86%); format: functional
[20] = tested on: SW480; assay: Cell cycle arrest in human SW480 cells assessed as accumulation at G0/G1 phase at 0.8 uM after 48 hrs by propidium iodide staining-based flow cytometry (reference value: 72.00 +/- 4.30%); format: functional
[21] = tested on: SW480; assay: Cell cycle arrest in human SW480 cells assessed as accumulation at S phase at 1 uM after 48 hrs by propidium iodide staining-based flow cytometry (reference value: 14.01 +/- 0.86%); format: functional
[22] = tested on: SW480; assay: Cell cycle arrest in human SW480 cells assessed as accumulation at G2/M phase at 0.8 uM after 48 hrs by propidium iodide staining-based flow cytometry (reference value: 13.99 +/- 0.35%); format: functional

Structure (SMILES) | IC50 [1] [µM] | IC50 [2] [µM] | IC50 [3] [µM] | IC50 [5] [µM] | IC50 [9] [µM] | IC50 [12] [µM] | also measured
O=c1c(CSc2cc(=O)c3ccccc3s2)coc2ccccc12 | 5.4 | 1.4 | 2.8 | 2.6 | 1.7 | 3.6 | Ratio IC50 [4]: 6.6; Ratio IC50 [6]: 0.5; Ratio IC50 [7]: 0.7; Ratio IC50 [8]: 33.9; Ratio IC50 [10]: 8.3; Ratio IC50 [11]: 2.3
Cc1nnc(SCc2coc3ccccc3c2=O)s1 | 6.7 | 2.9 | 0.43 | 2.3 | 0.63 | 1 | Activity [13]: 38.03%; Activity [14]: Dose-dependent effect; Ratio IC50 [4]: 6.6; Activity [15]: 26.74%; Ratio IC50 [6]: 0.5; Activity [16]: 19.13%; Activity [17]: 54.99%; Activity [18]: 42.84%; Ratio IC50 [7]: 0.7; Ratio IC50 [8]: 33.9; Activity [19]: 15.47%; Activity [20]: 62.5%; Ratio IC50 [10]: 8.3; Activity [21]: 18.27%; Ratio IC50 [11]: 2.3; Activity [22]: 22.03%
Nc1nnc(SCc2cc(=O)oc3c2ccc2ccccc23)s1 | > 25 | > 25 | > 25 | > 25 | > 25 | > 25 | –
O=c1cc(SCn2cnc3ccccc3c2=O)sc2ccccc12 | 5.3 | 5.9 | 17 | 6.3 | 4.1 | 8.5 | –
Cc1cc(C)n2nc(SCc3nnc(SCc4coc5ccccc5c4=O)n3-c3ccccc3)nc2n1 | > 25 | 22.1 | 16.6 | > 25 | 2.9 | 12.4 | –
Cc1cc(C)n2nc(SCn3cnc4c(Cl)cccc4c3=O)nc2n1 | > 25 | > 25 | > 25 | > 25 | > 25 | > 25 | –
Cc1nnc(SCc2coc3ccc(Cl)cc3c2=O)o1 | 5 | 6.4 | 8.7 | 3.2 | 3.3 | 3.5 | –
Cc1cc(C)n2nc(SCc3nnc(SCc4cc(=O)c5ccccc5o4)n3-c3ccccc3)nc2n1 | > 25 | > 25 | > 25 | > 25 | > 25 | > 25 | –
O=c1c2cccc(Cl)c2ncn1CSc1nc2ccccc2o1 | > 25 | > 25 | > 25 | > 25 | > 25 | > 25 | –
Cc1cc(C)nc(SCn2cnc3ccccc3c2=O)n1 | > 25 | > 25 | > 25 | > 25 | > 25 | > 25 | –
Cc1ccc2oc(CSc3nnc(N)s3)cc(=O)c2c1 | > 25 | > 25 | > 25 | > 25 | > 25 | > 25 | –
Cc1nnc(SCc2coc3ccccc3c2=O)o1 | 4.6 | 3.8 | 3.5 | 1.4 | 1.2 | 0.79 | Ratio IC50 [4]: 6.6; Ratio IC50 [6]: 0.5; Ratio IC50 [7]: 0.7; Ratio IC50 [8]: 33.9; Ratio IC50 [10]: 8.3; Ratio IC50 [11]: 2.3
O=c1c2ccccc2ncn1CSc1nc2ccccc2o1 | > 25 | > 25 | > 25 | > 25 | > 25 | > 25 | –
Cc1cc(C)nc(SCc2coc3ccccc3c2=O)n1 | > 25 | 55.1 | > 25 | > 25 | > 25 | > 25 | –
Nc1nnc(SCc2cc(=O)c3ccccc3o2)s1 | > 25 | > 25 | > 25 | > 25 | > 25 | > 25 | –
Cc1cc(C)n2nc(SCc3nnc(SCn4cnc5c(Cl)cccc5c4=O)s3)nc2n1 | > 25 | > 25 | > 25 | > 25 | > 25 | > 25 | –
Cc1cc(C)n2nc(SCc3nnc(SCc4cc(=O)oc5cc(O)cc(C)c45)s3)nc2n1 | > 25 | > 25 | > 25 | > 25 | > 25 | > 25 | –
Cc1nnc(Sc2c(C)oc3ccccc3c2=O)o1 | > 50 | > 50 | > 50 | > 50 | > 50 | > 50 | –
Cc1cc(C)nc(SCn2cnc3c(Cl)cccc3c2=O)n1 | > 25 | > 25 | > 25 | > 25 | > 25 | > 25 | –
Cc1ccc2oc(CSc3nnc(C)o3)cc(=O)c2c1 | > 25 | > 25 | > 25 | > 25 | > 25 | > 25 | –
Cc1cc(C)n2nc(SCc3nnc(SCc4cc(=O)c5ccccc5o4)n3N)nc2n1 | > 25 | > 25 | > 25 | > 25 | > 25 | > 25 | –
Cc1cc(C)nc(SCc2cc(=O)c3ccccc3o2)n1 | > 25 | > 25 | > 25 | > 25 | > 25 | > 25 | –

From ChEMBL document CHEMBL2417443, “Efficient synthesis and antiproliferative activity of novel thioether-substituted flavonoids” (Eur J Med Chem, 2013)
